From PubChem BioAssay AID1259407 (Chemical Carcinogenesis Research Information System (CCRIS), 2018)
Activity calls are given as the source filed them. How the calls were made is not given here.

Test system: CCRIS mutagenicity, Ames/micronucleus/aberration tests
Test: CCRIS mutagenicity studies
[1] = Test System: AMES SALMONELLA TYPHIMURIUM, Strain/Indicator: TA98, Metabolic Activation: NONE, Method: PREINCUBATION
[2] = Test System: AMES SALMONELLA TYPHIMURIUM, Strain/Indicator: TA100, Metabolic Activation: NONE, Method: PREINCUBATION
[3] = Test System: AMES SALMONELLA TYPHIMURIUM, Strain/Indicator: TA1535, Metabolic Activation: NONE, Method: STANDARD PLATE
[4] = Test System: AMES SALMONELLA TYPHIMURIUM, Strain/Indicator: TA1535, Metabolic Activation: RAT, LIVER, S-9, AROCLOR 1254, Method: STANDARD PLATE
[5] = Test System: AMES SALMONELLA TYPHIMURIUM, Strain/Indicator: TA1538, Metabolic Activation: RAT, LIVER, S-9, AROCLOR 1254, Method: STANDARD PLATE

CCC1(c2ccccc2)C(=O)NC(=O)NC1=O
mutagenic call (Test System: AMES SALMONELLA TYPHIMURIUM, Strain/Indicator: TA97, Metabolic Activation: HAMSTER LIVER S-9, AROCLOR 1254 (10%), Method: PREINCUBATION): inactive; negative | mutagenic call (Test System: AMES SALMONELLA TYPHIMURIUM, Strain/Indicator: TA97, Metabolic Activation: NONE, Method: PREINCUBATION): inactive; negative | mutagenic call (Test System: AMES SALMONELLA TYPHIMURIUM, Strain/Indicator: TA97, Metabolic Activation: NONE, Method: STANDARD PLATE): inactive; negative | mutagenic call (Test System: AMES SALMONELLA TYPHIMURIUM, Strain/Indicator: TA97, Metabolic Activation: RAT LIVER S-9, AROCLOR 1254 (10%), Method: PREINCUBATION): inactive; negative | mutagenic call (Test System: AMES SALMONELLA TYPHIMURIUM, Strain/Indicator: TA97, Metabolic Activation: S-9, Method: STANDARD PLATE): inactive; negative | mutagenic call (Test System: AMES SALMONELLA TYPHIMURIUM, Strain/Indicator: TA98, Metabolic Activation: HAMSTER LIVER S-9, AROCLOR 1254 (10%), Method: PREINCUBATION): inactive; negative | mutagenic call [1]: inactive; negative | mutagenic call (Test System: AMES SALMONELLA TYPHIMURIUM, Strain/Indicator: TA98, Metabolic Activation: NONE, Method: STANDARD PLATE): inactive; negative | mutagenic call (Test System: AMES SALMONELLA TYPHIMURIUM, Strain/Indicator: TA98, Metabolic Activation: RAT LIVER S-9, AROCLOR 1254 (10%), Method: PREINCUBATION): inactive; negative | mutagenic call (Test System: AMES SALMONELLA TYPHIMURIUM, Strain/Indicator: TA98, Metabolic Activation: RAT, LIVER, S-9, AROCLOR 1254, Method: STANDARD PLATE): inactive; negative | mutagenic call (Test System: AMES SALMONELLA TYPHIMURIUM, Strain/Indicator: TA98, Metabolic Activation: S-9, Method: STANDARD PLATE): inactive; negative | mutagenic call (Test System: AMES SALMONELLA TYPHIMURIUM, Strain/Indicator: TA100, Metabolic Activation: HAMSTER LIVER S-9, AROCLOR 1254 (10%), Method: PREINCUBATION): inactive; negative | mutagenic call [2]: inactive; negative | mutagenic call (Test System: AMES SALMONELLA TYPHIMURIUM, Strain/Indicator: TA100, Metabolic Activation: NONE, Method: STANDARD PLATE): inactive; negative | mutagenic call (Test System: AMES SALMONELLA TYPHIMURIUM, Strain/Indicator: TA100, Metabolic Activation: RAT LIVER S-9, AROCLOR 1254 (10%), Method: PREINCUBATION): inactive; negative | mutagenic call (Test System: AMES SALMONELLA TYPHIMURIUM, Strain/Indicator: TA100, Metabolic Activation: RAT, LIVER, S-9, AROCLOR 1254, Method: STANDARD PLATE): inactive; negative | mutagenic call (Test System: AMES SALMONELLA TYPHIMURIUM, Strain/Indicator: TA100, Metabolic Activation: S-9, Method: STANDARD PLATE): inactive; negative | mutagenic call (Test System: AMES SALMONELLA TYPHIMURIUM, Strain/Indicator: TA102, Metabolic Activation: NONE, Method: STANDARD PLATE): inactive; negative | mutagenic call (Test System: AMES SALMONELLA TYPHIMURIUM, Strain/Indicator: TA102, Metabolic Activation: S-9, Method: STANDARD PLATE): inactive; negative | mutagenic call (Test System: AMES SALMONELLA TYPHIMURIUM, Strain/Indicator: TA1535, Metabolic Activation: HAMSTER LIVER S-9, AROCLOR 1254 (10%), Method: PREINCUBATION): inactive; negative | mutagenic call [3]: active; positive | mutagenic call (Test System: AMES SALMONELLA TYPHIMURIUM, Strain/Indicator: TA1535, Metabolic Activation: RAT LIVER S-9, AROCLOR 1254 (5 OR 10%), Method: PREINCUBATION): inactive; negative | mutagenic call [4]: inactive; negative | mutagenic call (Test System: AMES SALMONELLA TYPHIMURIUM, Strain/Indicator: TA1537, Metabolic Activation: NONE, Method: STANDARD PLATE): inactive; negative | mutagenic call (Test System: AMES SALMONELLA TYPHIMURIUM, Strain/Indicator: TA1537, Metabolic Activation: RAT, LIVER, S-9, AROCLOR 1254, Method: STANDARD PLATE): inactive; negative | mutagenic call (Test System: AMES SALMONELLA TYPHIMURIUM, Strain/Indicator: TA1538, Metabolic Activation: NONE, Method: STANDARD PLATE): inactive; negative | mutagenic call [5]: inactive; negative | mutagenic call (Test System: CHINESE HAMSTER V-79, Strain/Indicator: V-79/6-THIOGUANINE, Metabolic Activation: NONE, Method: REPLATING): active; positive | mutagenic call (Test System: MOUSE LYMPHOMA, Strain/Indicator: L5178Y (TK+/-)/TRIFLUROTHYMIDINE, Metabolic Activation: NONE, Method: SUSPENSION/PLATE): inactive; negative | mutagenic call (Test System: MOUSE LYMPHOMA, Strain/Indicator: L5178Y (TK+/TK-), Metabolic Activation: NONE, Method: SUSPENSION/PLATE): inactive; negative | mutagenic call (Test System: MOUSE LYMPHOMA, Strain/Indicator: L5178Y (TK+/TK-), Metabolic Activation: RAT, LIVER, S-9, AROCLOR 1254, Method: SUSPENSION/PLATE): active; positive | mutagenic call (Test System: MOUSE LYMPHOMA, Strain/Indicator: L5178Y (TK+/TK-), Metabolic Activation: RAT, LIVER, S-9, Method: SUSPENSION/PLATE): inactive; negative | mutagenic call (Test System: UDS RAT HEPATOCYTES, Strain/Indicator: BROMODEOXYURIDINE INCORP, Metabolic Activation: NONE, Method: FLOW CYTOMETRIC ANALYSIS): inactive; negative | mutagenic call (Test System: UDS RAT HEPATOCYTES, Strain/Indicator: THY INCORP, Metabolic Activation: NONE, Method: AUTORADIOGRAPHY): inactive; negative | mutagenic call (Test System: UDS RAT HEPATOCYTES, Strain/Indicator: THY INCORP, Metabolic Activation: NONE, Method: LIQUID SCINTILLATION COUNTING): inactive; negative

Nc1cc(S(=O)(=O)[O-])cc2c1C(=O)/C(=N\Nc1ccc(-c3ccc(N/N=C4\C(=O)c5c(N)cc(S(=O)(=O)[O-])cc5C=C4S(=O)(=O)[O-])c(O)c3)cc1O)C(S(=O)(=O)[O-])=C2.[Cu].[Cu].[Na+].[Na+].[Na+].[Na+]
mutagenic call (Test System: AMES SALMONELLA TYPHIMURIUM, Strain/Indicator: TA98, Metabolic Activation: HAMSTER, LIVER, S-9, AROCLOR 1254 (10%), Method: PREINCUBATION): inactive; negative | mutagenic call [1]: inactive; negative | mutagenic call (Test System: AMES SALMONELLA TYPHIMURIUM, Strain/Indicator: TA98, Metabolic Activation: RAT, LIVER, S-9, AROCLOR 1254 (10%), Method: PREINCUBATION): inactive; negative | mutagenic call (Test System: AMES SALMONELLA TYPHIMURIUM, Strain/Indicator: TA100, Metabolic Activation: HAMSTER, LIVER, S-9, AROCLOR 1254 (10%), Method: PREINCUBATION): inactive; negative | mutagenic call [2]: inactive; negative | mutagenic call (Test System: AMES SALMONELLA TYPHIMURIUM, Strain/Indicator: TA100, Metabolic Activation: RAT, LIVER, S-9, AROCLOR 1254 (10%), Method: PREINCUBATION): inactive; negative | mutagenic call (Test System: AMES SALMONELLA TYPHIMURIUM, Strain/Indicator: TA1535, Metabolic Activation: HAMSTER, LIVER, S-9, AROCLOR 1254 (10%), Method: PREINCUBATION): inactive; negative | mutagenic call (Test System: AMES SALMONELLA TYPHIMURIUM, Strain/Indicator: TA1535, Metabolic Activation: NONE, Method: PREINCUBATION): inactive; negative | mutagenic call (Test System: AMES SALMONELLA TYPHIMURIUM, Strain/Indicator: TA1535, Metabolic Activation: RAT, LIVER, S-9, AROCLOR 1254 (10%), Method: PREINCUBATION): inactive; negative | mutagenic call (Test System: AMES SALMONELLA TYPHIMURIUM, Strain/Indicator: TA1537, Metabolic Activation: HAMSTER, LIVER, S-9, AROCLOR 1254 (10%), Method: PREINCUBATION): inactive; negative | mutagenic call (Test System: AMES SALMONELLA TYPHIMURIUM, Strain/Indicator: TA1537, Metabolic Activation: NONE, Method: PREINCUBATION): inactive; negative | mutagenic call (Test System: AMES SALMONELLA TYPHIMURIUM, Strain/Indicator: TA1537, Metabolic Activation: RAT, LIVER, S-9, AROCLOR 1254 (10%), Method: PREINCUBATION): inactive; negative | mutagenic call [5]: inactive; negative

O=S(=O)(O)c1ccc2cc(O)ccc2c1
mutagenic call [1]: inactive; negative | mutagenic call (Test System: AMES SALMONELLA TYPHIMURIUM, Strain/Indicator: TA98, Metabolic Activation: RAT, LIVER, S-9, PHENOBARBITAL, Method: PREINCUBATION): inactive; negative | mutagenic call [2]: inactive; negative | mutagenic call (Test System: AMES SALMONELLA TYPHIMURIUM, Strain/Indicator: TA100, Metabolic Activation: RAT, LIVER, S-9, PHENOBARBITAL, Method: PREINCUBATION): inactive; negative

Cc1ccc(NN=NCc2ccc([N+](=O)[O-])cc2)cc1
mutagenic call [1]: active; positive | mutagenic call (Test System: AMES SALMONELLA TYPHIMURIUM, Strain/Indicator: TA98, Metabolic Activation: RAT, LIVER, S-9, PCB, Method: PREINCUBATION): active; positive | mutagenic call [2]: active; positive | mutagenic call (Test System: AMES SALMONELLA TYPHIMURIUM, Strain/Indicator: TA100, Metabolic Activation: RAT, LIVER, S-9, PCB, Method: PREINCUBATION): active; positive

COC(=O)/C(C#N)=C/c1ccccc1Br
mutagenic call [3]: inactive; negative | mutagenic call [4]: inactive; negative
